According to US20100098654A1:

How the values were obtained:
[1] = tested on: human neuroblastoma cells (HTLA-230); test: Pseudometastatic human neuroblastoma (HTLA-230) xenografted mice, survival; assay type: in vivo; details: HTLA-230 i.v. in nude mice, 10 mg/kg q2d×5
Description: Xenografts were established in mice by injecting human neuroblastoma cells (HTLA-230) intravenously at zero time point.
Four-week-old female athymic nude (nu/nu) mice were purchased from Harlan Laboratories (Harlan Italy-S.Pietro al Natisone, UD). Eight mice/group were injected with the human NB cell line, HTLA-230 (3.5×10^6 cells in 200 μl of HEPES-buffered saline) in the tail vein (i.v.) on day 0. The mice were then randomly assigned to each test group (8 mice per group). […] Control group received HEPES-buffered saline. The mice were monitored routinely for weight loss. Survival times were used as the criteria for determining treatment efficacy.

[2] = tested on: human neuroblastoma cells (GI-LI-N); test: Orthotopic human neuroblastoma (GI-LI-N) xenografted mice; assay type: in vivo, mouse (human tumor xenograft)
Description: Xenograft tumors were established in mice by injecting human neuroblastoma cells (GI-LI-N) in the adrenal gland.
Five-week-old female athymic nude (nu/nu) mice were randomly assigned to each test group (8 mice per group). Eight mice/group were anaesthetised and injected with the human NB cell line, GI-LI-N (1×10^6 cells in 15 μl of HEPES buffer), after laparatomy, in the capsule of the left adrenal gland. Mice were monitored at least two times weekly for evidence of tumor development, quantification of tumor size, and evidence of tumor-associated morbidity. […] Control group received HEPES-buffered saline. The body weight and general physical status of the animals was observed daily and any mouse was terminated when a tumor reached 1000-1200 mm^3. Survival time was used as the criteria for determining treatment efficacy.
Tumors were removed from orthotopic neuroblastoma-bearing mice at day 50. Tumor sections were immunostained for NB84 as a neuroblastoma cell marker, and Ki-67 as a tumor cell proliferation marker. Cell nuclei were stained with DAPI.
Control group received HEPES-buffered saline.

[3] = tested on: human neuroblastoma cells NXS2; test: NXS2 xenografted mice, survival; assay type: in vivo; details: NXS2 in A/J mice
Description: Xenograft tumors were established in immunocompetent A/J mice by injecting […] neuroblastoma cells, NXS2, in the adrenal gland.
The immunocompetent mice were injected with another […] NB cell, NXS2 of 5×10^4 cells or 5×10^5 cells in the left adrenal gland. Tumors were allowed to grow for 2 days and reached the average volume of approximately 200 mm^3. […] Control group received HEPES-buffered saline. Survival time was used as the criteria for determining treatment efficacy.

[4] = GI-LI-N orthotopic (Example 27), 10 mg/kg q2d×5

CCc1c2c(nc3ccc(OC(=O)N4CCC(N5CCCCC5)CC4)cc13)-c1cc3c(c(=O)n1C2)COC(=O)[C@]3(O)CC [CPT-11]
mice surviving [1]: None | time by which animals died ([1]; from the cancer injection): ≤ 85 days | mice surviving [2, 4]: None | time by which animals died [2, 4]: ≤ 80 days | time by which animals died ([2]; GI-LI-N orthotopic (Example 30), 10 mg/kg/dose): ≤ 80 days | mice surviving ([2]; GI-LI-N orthotopic (Example 30), 10 mg/kg/dose day 21, 23, 25, 27, 29): None | effect on survival rate ([2]; GI-LI-N orthotopic (Example 30), at MTD (40 mg/kg)): slightly improved survival rate | mice surviving ([3]; 10 mg/kg/dose q2d×5): None | mice surviving ([3]; MTD (40 mg/kg) q2d×5): None
